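Following 48 hours of exposure in 96-well plates, responses at five concentrations were used to interpolate endpoints linearly. TGI denotes the concentration required for complete inhibition of growth.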
Assays:
Experiment in all cases: NCI anticancer screen, dose series, 48 h
UACC-257 melanoma = test system: UACC-257 melanoma
U251 CNS = test system: U251 CNS
RPMI-8226 leukemia = test system: RPMI-8226 leukemia
SF-268 CNS = test system: SF-268 CNS
LOX IMVI melanoma = test system: LOX IMVI melanoma
UO-31 renal = test system: UO-31 renal
TK-10 renal = test system: TK-10 renal
OVCAR-3 ovarian = test system: OVCAR-3 ovarian
SNB-75 CNS = test system: SNB-75 CNS
NCI-H522 lung = test system: NCI-H522 lung
HCT-116 colon = test system: HCT-116 colon
UACC-62 melanoma = test system: UACC-62 melanoma
SK-MEL-28 melanoma = test system: SK-MEL-28 melanoma
SF-539 CNS = test system: SF-539 CNS
NCI-H226 lung = test system: NCI-H226 lung
A498 renal = test system: A498 renal
CCRF-CEM leukemia = test system: CCRF-CEM leukemia
NCI/ADR-RES ovarian = test system: NCI/ADR-RES ovarian
SK-MEL-2 melanoma = test system: SK-MEL-2 melanoma
MDA-MB-435 = test system: MDA-MB-435
M14 melanoma = test system: M14 melanoma
HL-60(TB) leukemia = test system: HL-60(TB) leukemia
PC-3 prostate = test system: PC-3 prostate
NCI-H460 lung = test system: NCI-H460 lung
OVCAR-5 ovarian = test system: OVCAR-5 ovarian
A549 NSCLC = test system: A549 NSCLC
786-0 renal = test system: 786-0 renal
HS 578T breast = test system: HS 578T breast
SNB-19 CNS = test system: SNB-19 CNS
SK-MEL-5 melanoma = test system: SK-MEL-5 melanoma
MDA-N = test system: MDA-N
SN12C renal = test system: SN12C renal
DU-145 prostate = test system: DU-145 prostate
COLO 205 colon = test system: COLO 205 colon
HT29 colon = test system: HT29 colon
EKVX NSCLC = test system: EKVX NSCLC
HCT-15 colon = test system: HCT-15 colon
MDA-MB-231 breast = test system: MDA-MB-231 breast
MALME-3M melanoma = test system: MALME-3M melanoma
SW-620 colon = test system: SW-620 colon
HCC-2998 colon = test system: HCC-2998 colon
CAKI-1 renal = test system: CAKI-1 renal
OVCAR-8 ovarian = test system: OVCAR-8 ovarian
SK-OV-3 ovarian = test system: SK-OV-3 ovarian
NCI-H23 lung = test system: NCI-H23 lung
IGROV1 ovarian = test system: IGROV1 ovarian
KM12 colon = test system: KM12 colon
T-47D breast = test system: T-47D breast
HOP-92 NSCLC = test system: HOP-92 NSCLC
ACHN renal = test system: ACHN renal
OVCAR-4 ovarian = test system: OVCAR-4 ovarian
MOLT-4 leukemia = test system: MOLT-4 leukemia
BT-549 breast = test system: BT-549 breast
SF-295 CNS = test system: SF-295 CNS
MCF7 breast = test system: MCF7 breast
K-562 leukemia = test system: K-562 leukemia
RXF 393 renal = test system: RXF 393 renal
HOP-62 NSCLC = test system: HOP-62 NSCLC

Measured: TGI

COc1ccc(CC2c3cc4c(cc3CCN2C)OCO4)c(C=O)c1OC (stereo unspecified)
not listed: RXF 393 renal | HOP-62 NSCLC
> 100 µM: all other assays above

CC(=O)NC(Cc1ccc(O)cc1)C(=O)O (stereo unspecified)
not listed: SNB-75 CNS | SF-539 CNS | CCRF-CEM leukemia
> 100 µM: all other assays above

Source: PubChem BioAssay (NCI)
